Measured values: ChEMBL document CHEMBL2146431, “Phosphoramidate derivatives of acyclovir: synthesis and antiviral activity in HIV-1 and HSV-1 models in vitro” (Bioorg Med Chem, 2012)
The source made the active and inactive calls. The rule behind the calls is not given here.

How the values were obtained:
Jurkat = assay: Cytotoxicity against human Jurkat cells up to 2000 uM after 48 hrs by trypan blue staining; format: cell-based
[1] = Selectivity ratio of CC50 for african green monkey Vero cells to EC50 for acyclovir-resistant HSV1 L2; format: ADME, cell-based; details: read-out: Ratio CC50/EC50
Human alphaherpesvirus 1 [2] = assay: Antiviral activity against HSV1 L2 infected in Vero E6 cells assessed as inhibition of virus-induced cytopathic effect after 48 hrs; format: functional, organism-based; details: Human alphaherpesvirus 1, L2, Vero
[3] = Selectivity ratio of CC50 for african green monkey Vero cells to EC50 for HSV1 L2; format: ADME, cell-based; details: read-out: Ratio CC50/EC50
Human alphaherpesvirus 1 [4] = assay: Antiviral activity against acyclovir-resistant HSV1 L2 infected in Vero E6 cells assessed as inhibition of virus-induced cytopathic effect after 48 hrs; format: functional, organism-based; details: Human alphaherpesvirus 1, L2, Vero
[5] = Cytotoxicity against african green monkey Vero E6 cells after 72 hrs by trypan blue staining; format: cell-based; details: chlorocebus sabaeus
[6] = Half life of the compound in phosphate buffer at pH 7.4 assessed as acyclovir formation by TLC analysis; format: physicochemical
[7] = Half life of the compound in KCl/KOH buffer at pH 12 assessed as acyclovir formation by TLC analysis; format: physicochemical
[8] = Chemical stability of the compound in KCl/HCl buffer at pH 2 assessed as monoamidate formation by TLC analysis; format: physicochemical
[9] = Half life of the compound in KCl/HCl buffer at pH 2 assessed as acyclovir monophosphate formation by TLC analysis; format: physicochemical
Human alphaherpesvirus 1 [10] = assay: Resistance ratio of EC50 for acyclovir-resistant HSV1 L2 to EC50 for HSV1 L2; format: functional
[11] = Half life of the compound in KCl/KOH buffer at pH 12 assessed as acyclovir and acyclovir monophosphate formation by TLC analysis; format: physicochemical
[12] = tested on: Human immunodeficiency virus 1; assay: Antiviral activity against HIV1 pseudovirus infected in Jurkat cells coexpressing GFP assessed as viral growth inhibition incubated for 2 to 8 hrs prior to infection measured after 48 hrs by flow cytofluorimetric analysis; format: functional, organism-based
[13] = tested on: Human immunodeficiency virus 1; assay: Antiviral activity against HIV1 pseudovirus infected in Jurkat cells coexpressing GFP assessed as viral growth inhibition up to 100 uM incubated for 2 to 8 hrs prior to infection measured after 48 hrs by flow cytofluorimetric analysis; format: functional, organism-based
[14] = tested on: Human immunodeficiency virus 1; assay: Antiviral activity against HIV1 pseudovirus by cell-based assay; format: functional, organism-based
[15] = tested on: Human immunodeficiency virus 1; assay: Antiviral activity against HIV1 pseudovirus infected in Jurkat cells coexpressing GFP assessed as viral growth inhibition at 20 uM incubated for 2 to 8 hrs prior to infection measured after 48 hrs by flow cytofluorimetric analysis; format: functional; details: Human immunodeficiency virus 1, Jurkat; read-out: GI

Row | SMILES | Activity (Jurkat) | selectivity ratio [1] | EC50 (Human alphaherpesvirus 1 [2]) | selectivity ratio [3] | EC50 (Human alphaherpesvirus 1 [4]) | CC50 at 72 h [5] | t1/2 [6] | t1/2 [7] | Stability [8] | t1/2 [9] | Ratio EC50 (Human alphaherpesvirus 1 [10]) | t1/2 [11] | growth inhibition (GI) [12] | growth inhibition (GI) [13] | EC50 [14] | EC50 ([12]; Human immunodeficiency virus 1, Jurkat) | inhibition of growth at 20 µM [15]
1 | Nc1nc(=O)c2ncn(COCCOP(=O)(O)O)c2[nH]1 | Non-toxic | > 49 | 20 µM | > 100 | 41 µM | > 2000 µM | – | – | – | – | – | – | – | – | – | – | –
2 | CCCCCCNP(=O)(NCCCCCC)OCCOCn1cnc2c(=O)[nH]c(N)nc21 | Non-toxic | – | – | – | – | – | 5 h | 1 h | Stable | 0.083 h | – | – | – | – | – | – | –
3 | CCCN(CCC)P(=O)(O)OCCOCn1cnc2c(=O)[nH]c(N)nc21.N | Non-toxic | > 54 | 15 µM | > 133 | 37 µM | > 2000 µM | > 120 h | – | – | < 0.083 h | 2.5 | 96 h | Dose-dependent effect | Active | – | – | –
4 | Nc1nc2c(ncn2COCCOP(=O)(N2CCOCC2)N2CCOCC2)c(=O)[nH]1 | Non-toxic | – | > 500 µM | – | > 500 µM | > 2000 µM | > 120 h | 18 h | Stable | 0.5 h | – | – | – | – | – | – | –
5 | Cc1cn([C@H]2C[C@H](N=[N+]=[N-])[C@@H](CO)O2)c(=O)[nH]c1=O [ZIDOVUDINE] | – | – | – | – | – | – | – | – | – | – | – | – | – | – | 0.003 µM | 0.09 µM | –
6 | N.Nc1nc2c(ncn2COCCOP(=O)(O)NCCN2CCOCC2)c(=O)[nH]1 | Non-toxic | – | – | – | – | – | > 120 h | – | – | < 0.083 h | – | 48 h | Dose-dependent effect | Active | – | – | –
7 | N.Nc1nc2c(ncn2COCCOP(=O)(O)N2CCCC2)c(=O)[nH]1 | Non-toxic | – | – | – | – | – | > 120 h | – | – | < 0.083 h | – | 96 h | Dose-dependent effect | Active | – | – | –
8 | Nc1nc2c(ncn2COCCO)c(=O)[nH]1 [ACYCLOVIR] | – | > 3.8 | 1.7 µM | > 1180 | 530 µM | > 2000 µM | – | – | – | – | – | – | Dose-dependent effect | Active | – | – | –
9 | CN(C)CCCNP(=O)(O)OCCOCn1cnc2c(=O)[nH]c(N)nc21.N | Non-toxic | – | – | – | – | – | > 120 h | – | – | < 0.083 h | – | 48 h | – | – | – | – | –
10 | CN(C)CCNP(=O)(O)OCCOCn1cnc2c(=O)[nH]c(N)nc21.N | Non-toxic | – | – | – | – | – | > 120 h | – | – | < 0.083 h | – | 48 h | – | – | – | – | –
11 | N.Nc1nc2c(ncn2COCCOP(=O)(O)N2CCOCC2)c(=O)[nH]1 | Non-toxic | > 80 | 9.7 µM | > 206 | 25 µM | > 2000 µM | > 120 h | – | – | < 0.083 h | 2.5 | > 120 h | Dose-dependent effect | Active | – | – | 50%
12 | Nc1nc2c(ncn2COCCOP(=O)(N2CCCC2)N2CCCC2)c(=O)[nH]1 | Non-toxic | – | – | – | – | – | 18 h | 3 h | Stable | 0.167 h | – | – | – | – | – | – | –
13 | CCCCCCNP(=O)(O)OCCOCn1cnc2c(=O)[nH]c(N)nc21.N | Non-toxic | – | – | – | – | – | > 120 h | – | – | < 0.083 h | – | 48 h | Dose-dependent effect | Active | – | – | –
14 | Nc1nc2c(ncn2COCCOP(N)(N)=O)c(=O)[nH]1 | Non-toxic | – | – | – | – | – | 4 h | < 1 h | Stable | 0.083 h | – | – | – | – | – | – | –
